Drawing on patent publication US12612441B2, “Polypeptide and therapeutic uses thereof” (Vitalixir (Beijing) Co., Ltd, priority 2019, dated 2026), this text covers blood glucose for three substances.

This assay has as its system db/db mice. The assay can be described thus: Blood glucose lowering in db/db mice (Example 12). It counts as in vivo. The following applies: db/db male mice, 35 nmol/kg subcutaneous single dose, 0-10 hours, AUC, vs PBS control; FIG. 9. The procedure:
The feeding conditions of db/db mice were the same as described in Example 7. The db/db male mice (GemPharmatech, 7 weeks old) had one-week to acclimate to the environmental conditions of the test facility. Three days before the test (−3 day˜−1 day) baseline blood glucose and body weight were recorded. The mice were randomly grouped based on three-day blood glucose and body weight, with 6 mice in each group. Mice were injected subcutaneously with PBS (5 ml/kg, control group) or peptide compounds 42, 115, 178 (35 nmol/kg) at 10:00 in the morning. Blood was collected at 0 hour before drug administration, and 1.5, 4, 7, and 10 hours after administration, and blood glucose was measured using a OneTouch glucose meter (Johnson & Johnson) and test strips. By using time as the abscissa and the blood glucose value at different time points as the ordinate blood glucose curves were drawn, and the areas under the curve (AUC) were calculated to compare the hypoglycemic effects and duration of action of the peptide compounds.
For “Y(aib)EGTFTSDLSI(aib)LEKEAVRLFIEWLLAGGPS-NH2 (YXEGTFTSDLSIXLEKEAVRLFIEWLLAGGPS; Aib; C-terminal amide; MOD_RES (2)..(2) X=aminoisobutyric aicd; MOD_RES (13)..(13) X=aminoisobutyric aicd; MOD_RES (32)..(32) AMIDATION, C-termianl amidation) [Compound 178]”, the blood glucose result is given as “significantly reduced blood glucose”.

Consider “Y(aib)EGTFTSDLSI(aib)LEKEAVRLFIEWLLAGGPSSGA-NH2 (YXEGTFTSDLSIXLEKEAVRLFIEWLLAGGPSSGA; Aib; C-terminal amide; MOD_RES (2)..(2) X=aminoisobutyric aicd; MOD_RES (13)..(13) X=aminoisobutyric aicd; MOD_RES (35)..(35) AMIDATION, C-termianl amidation) [Compound 115]”, for which the blood glucose entry is “significantly reduced blood glucose”.

For the substance “Y(aib)EGTFTSDLSI(aib)LEKEAVRLFIEWLLAG-NH2 (YXEGTFTSDLSIXLEKEAVRLFIEWLLAG; Aib; C-terminal amide; MOD_RES (2)..(2) X=aminoisobutyric aicd; MOD_RES (13)..(13) X=aminoisobutyric aicd; MOD_RES (29)..(29) AMIDATION, C-termianl amidation) [Compound 42]”, the blood glucose entry was “significantly reduced blood glucose”.
